# Source: patent US11865118B2, “Heterocyclic compounds and their use in preventing or treating bacterial infections” (MUTABILIS, priority 2018, dated 2024)
# Counter-ions that a name gives are not always drawn.
# Legend:
# Assay in all cases: MIC of compounds alone, broth microdilution (CLSI)
# Type in all cases: cell-based
# P. aeruginosa PAE 107051 = details: Pseudomonas aeruginosa, PAE107051, substance alone, TEM-24, OXA-1
# Procedure: (§1) Compounds of the present invention were assessed against genotyped bacterial strains alone or in combination with the β-lactam ceftazidime.
# K. pneumoniae KPN 121206 = details: Klebsiella pneumoniae, KPN121206, substance alone, SHV-1, NDM-1
# Procedure: as §1
# E. coli ECO 190317 = details: Escherichia coli, ECO190317, substance alone, TEM-1, SHV-12, CTX-M-15, OXA-1
# Procedure: as §1
# P. aeruginosa PAE UFR49 = details: Pseudomonas aeruginosa, PAEUFR49, substance alone, VIM-2
# Procedure: as §1
# [1] = test system: P. aeruginosa PAE 105250 (AH); details: Pseudomonas aeruginosa, substance alone, OXA-15
# Procedure: as §1
# P. aeruginosa PAE UFR92 = details: Pseudomonas aeruginosa, PAEUFR92, read-out: MIC alone PAE UFR92
# Procedure: as §1
# E. coli ECO UFR39 = details: Escherichia coli, ECOUFR39, substance alone, CTX-M-15, NDM-1
# Procedure: as §1
# E. cloacae ECL P99 = details: Enterobacter cloacae, ECLP99, substance alone, AmpC
# Procedure: as §1
Structure (SMILES),MIC (P. aeruginosa PAE 107051),MIC (K. pneumoniae KPN 121206),MIC (E. coli ECO 190317),MIC (P. aeruginosa PAE UFR49),MIC [1],MIC (P. aeruginosa PAE UFR92),MIC (E. coli ECO UFR39),MIC (E. cloacae ECL P99)
"CN(C)C(=O)[C@H]1c2nc(C(=O)NCCNC(=N)N)sc2[C@@H]2CN1C(=O)N2OS(=O)(=O)O (relative stereo) [Example 9, [trans-4-(dimethylcarbamoyl)-2-(2-guanidinoethylcarbamoyl)-5,8-methano-6-oxo-4,8-dihydrothiazolo[4,5-e][1,3]diazepin-7-yl] hydrogen sulfate]",8 µg/mL,> 32 µg/mL,32 µg/mL,4 µg/mL,8 µg/mL,32 µg/mL,> 32 µg/mL,> 32 µg/mL
"CN(C)C(=O)[C@@H]1c2c(CNC(=N)N)csc2[C@H]2CN1C(=O)N2OS(=O)(=O)O.O=C(O)C(F)(F)F (relative stereo) [Example 10, [N-[[trans-4-(dimethylcarbamoyl)-5,8-methano-6-oxo-7-sulfooxy-4,8-dihydrothieno[2,3-e][1,3]diazepin-3-yl]methyl]carbamimidoyl]ammonium 2,2,2-trifluoroacetate]",4 µg/mL,32 µg/mL,2 µg/mL,8 µg/mL,8 µg/mL,8 µg/mL,32 µg/mL,16 µg/mL
"CN(C)C(=O)[C@@H]1c2c(CCNC(=N)N)csc2C2CN1C(=O)N2OS(=O)(=O)O (stereo in doubt) [Example 11, [(trans-4-(dimethylcarbamoyl)-3-(2-quanidinoethyl)-5,8-methano-6-oxo-4,8-dihydrothieno[2,3-e][1,3]diazepin-7-yl] hydrogen sulfate]",4 µg/mL,> 32 µg/mL,4 µg/mL,4 µg/mL,4 µg/mL,8 µg/mL,> 32 µg/mL,16 µg/mL
"CC(C)(O/N=C(\C(=O)N[C@@H]1C(=O)N2C(C(=O)[O-])=C(C[n+]3ccccc3)CS[C@H]12)c1csc(N)n1)C(=O)O [CAZ, ceftazidime]",256 µg/mL,> 256 µg/mL,128 µg/mL,64 µg/mL,256 µg/mL,32 µg/mL,> 256 µg/mL,128 µg/mL
"NCCNC(=O)c1nc2c(s1)C1CN(C2)C(=O)N1S(=O)(=O)O (stereo not drawn) [Example 1, [2-(2-aminoethylcarbamoyl)-5,8-methano-6-oxo-4,8-dihydrothiazolo[4,5-e][1,3]diazepin-7-yl]sulfonic acid]",8 µg/mL,32 µg/mL,0.25 µg/mL,16 µg/mL,8 µg/mL,8 µg/mL,0.5 µg/mL,2 µg/mL
N=C(N)NCc1nc2c(s1)C1CN(C2)C(=O)N1OS(=O)(=O)O (stereo not drawn) [Example 2],2 µg/mL,> 32 µg/mL,0.063 µg/mL,4 µg/mL,4 µg/mL,4 µg/mL,0.125 µg/mL,1 µg/mL
"N=C(N)NCCNC(=O)c1nc2c(s1)C1CN(C2)C(=O)N1OS(=O)(=O)O (stereo not drawn) [Example 3, [2-(2-quanidinoethylcarbamoyl)-5,8-methano-6-oxo-4,8-dihydrothiazolo[4,5-e][1,3]diazepin-7-yl]sulfonic acid]",4 µg/mL,16 µg/mL,0.5 µg/mL,16 µg/mL,8 µg/mL,8 µg/mL,2 µg/mL,0.5 µg/mL
NCc1nc2c(s1)C1CN(C2)C(=O)N1OS(=O)(=O)O (stereo not drawn) [Example 4],> 32 µg/mL,32 µg/mL,0.25 µg/mL,32 µg/mL,32 µg/mL,32 µg/mL,0.25 µg/mL,1 µg/mL
O=C(Nc1nc2c(s1)C1CN(C2)C(=O)N1OS(=O)(=O)[O-])OCc1ccccc1.[Na+] (stereo not drawn) [Example 5],> 32 µg/mL,> 32 µg/mL,> 32 µg/mL,> 32 µg/mL,> 32 µg/mL,> 32 µg/mL,> 32 µg/mL,> 32 µg/mL
CC(=O)Nc1nc2c(s1)C1CN(C2)C(=O)N1OS(=O)(=O)[O-].[Na+] (stereo not drawn) [Example 6],> 32 µg/mL,> 32 µg/mL,2 µg/mL,> 32 µg/mL,> 32 µg/mL,> 32 µg/mL,4 µg/mL,16 µg/mL
O=C1N2Cc3ccsc3C(C2)N1OS(=O)(=O)[O-].[Na+] (stereo not drawn) [Example 7],> 32 µg/mL,> 32 µg/mL,2 µg/mL,> 32 µg/mL,> 32 µg/mL,> 32 µg/mL,4 µg/mL,8 µg/mL
CCOC(=O)[C@@H]1c2c(-c3ccc(F)cc3)csc2[C@@H]2CN1C(=O)N2OS(=O)(=O)[O-].[Na+] [Example 8],> 32 µg/mL,> 32 µg/mL,> 32 µg/mL,> 32 µg/mL,> 32 µg/mL,> 32 µg/mL,> 32 µg/mL,> 32 µg/mL
